Assay results as given in patent US3997518A, “2-Alkyl-4-carboxyalkyl-5-(3,3'-dimethyltriazeno)-imidazoles” (Beecham Group Limited, priority 1970, dated 1976).
Converted amounts (≈) assume the structure as drawn.

Tests used:
R1 lymphoma [1] = experiment: Activity against R1 lymphoma, increase in survival time (Table A); assay type: in vivo, mice; conditions: Mus musculus, ip, read-out: Medium % increase in survival time; for ILS at 33 mg/kg: 33 mg/kg i.p. daily day 3 to day 7; for ILS at 64 mg/kg: 64 mg/kg i.p. daily day 3 to day 7; for ILS at 128 mg/kg: 128 mg/kg i.p. daily day 3 to day 7; for ILS at 32 mg/kg: 32 mg/kg i.p. daily day 3 to day 7
Description: (§1) The R1 lymphoma is normally sensitive to anti-metabolites. Typically mice having a transplant of 1.5 × 10^6 tumour cells die from the metastisizing tumour on day 9, 10 or 11 after transplant.
(§2) The compounds illustrated below were dosed by the intra peritoneal route in a vehicle of 10% acetone in arachas oil daily from day 3 to day 7 after tumour transplant. The increase in survival time over control was measured.
(§3) The dose reported is that dose which gave the maximum increase in survival time. Lower doses gave less activity and higher doses are toxic.
(§4) The results are split into two sections (in Table A and Table B) because two slightly different strains of R1 lymphoma were used.

R1 lymphoma [2] = experiment: Activity against R1 lymphoma, increase in survival time (Table B, slightly different strain); assay type: in vivo, mice; conditions: for ILS at 128 mg/kg: 128 mg/kg i.p. daily day 3 to day 7; for ILS at 33 mg/kg: 33 mg/kg i.p. daily day 3 to day 7
Description: as §1, §2, §3, §4

[3] = system: ADJ/PC6 plasma cell tumour; experiment: ADJ/PC6 plasma cell tumour, inhibition of tumour weight; assay type: in vivo, mice; conditions: i.p. dosing × 5; for ED90: Mus musculus, ADJ/PC6, ip, read-out: ID90 (the source's name); for Therapeutic Index: LD50 compared with ID90
From the text: (§5) The breadth of antitumour spectrum of the compounds of the invention in mice is illustrated by their activity in the ADJ/PC6 plasma cell tumour. This is a solid tumour sensitive to most alkylating agents. Good activity is rarely seen against this tumour and the R1 lymphoma.

[4] = Dose at which 50% of the animals were killed (LD50); set-up: species or system mice; conditions: mouse, in vivo, ip; i.p. dosing × 5
From the text: as §5

PC 6 tumour = PC 6 tumour screen; assay type: in vivo, mice
From the text: as §5
The test of example 91 was repeated using the PC 6 tumour screen.

Friend leukaemia virus = experiment: Friend Leukaemia, inhibition of splenomegally; assay type: in vivo, mice; conditions: sub-cutaneously 250 mg/kg/day on day -1, +1, +2 and +3 with respect to infection
From the text: Activity of these compounds has also been shown in Friend Leukaemia. Friend leukaemia virus is a prolonged infection in mice produced splenomegally.

Staphylococus aureus = experiment: Antibacterial activity, MIC; assay type: cell-based; conditions: DST agar + 5% lysed horse blood
From the text: (§6) Compounds of this invention have shown antibacterial activity. Thus the minimum inhibitory concentration (M.I.C.) of 4-carboxyethyl-5-(3,3-dimethyltriazeno)-2-phenylimidazole and the corresponding 2-methylimidazole in DST agar + 5% lysed horse blood are illustrated against the following bacteria.

[5] = system: Streptococus heamolyticus; experiment: Antibacterial activity, MIC; assay type: cell-based; conditions: DST agar + 5% lysed horse blood
From the text: as §6

Candida albicans = experiment: Antifungal activity, minimum inhibitory concentration; assay type: cell-based
From the text: (§7) Antifungal activity has been found in compounds of this invention. Thus 4-carboxyethyl-5-(3,3-dimethyltriazeno)-2-phenylimidazole has the following minimum inhibitory concentrations.

Candida neoformans = experiment: as above; assay type: cell-based
From the text: as §7

[6] = system: Trychopyton mentagrophytes; experiment: as above; assay type: cell-based
From the text: as §7

[7] = Skibba et al., Biochemical Pharmacology, 19, 2043 (1970); cited from earlier work
E. Coli = experiment: Antibacterial activity, MIC; assay type: cell-based; conditions: Escherichia coli; DST agar + 5% lysed horse blood
From the text: as §6

Proteus mirabilis = experiment: Antibacterial activity, MIC; assay type: cell-based; conditions: DST agar + 5% lysed horse blood
From the text: as §6

Pseudomonas aeroginosa = experiment: Antibacterial activity, MIC; assay type: cell-based; conditions: DST agar + 5% lysed horse blood
From the text: as §6

[8] = Table A strain, dose of maximum increase
[9] = Mus musculus, ip, Table B strain, 32 mg/kg i.p. daily day 3 to day 7, dose of maximum increase, read-out: Medium % increase in survival time
[10] = Mus musculus, ip, Table B strain, dose of maximum increase, read-out: Medium % increase in survival time
[11] = dose at which 90% inhibition of tumour weight occurs

Compound CCOC(=O)c1nc(-c2ccccc2F)[nH]c1N=NN(C)C [4-Carboxyethyl-5-(3,3-dimethyltriazeno)-2-(2-fluorophenyl) imidazole] has an ILS at 10 mg/kg (R1 lymphoma [1]; Table A strain, 10 mg/kg i.p. daily day 3 to day 7, dose of maximum increase) of 100%.

Compound CCOC(=O)c1nc(-c2ccc(OC)c(OC)c2)[nH]c1N=NN(C)C [4-Carboxyethyl-5-(3,3-dimethyltriazeno)-2-(3,4-dimethoxy-phenyl) imidazole] has an ILS at 33 mg/kg (R1 lymphoma [1]; [8]) of 200%.

For CCOC(=O)c1nc(COc2ccccc2)[nH]c1N=NN(C)C [4-Carbethoxy-5-(3,3-dimethyltriazeno)-2-phenoxymethyl imidazole], the ILS at 64 mg/kg (R1 lymphoma [1]; [8]) was 85%.

Compound CCOC(=O)c1nc(N(C)C)[nH]c1N=NN(C)C [4-Carbethoxy-5-(3,3-dimethyltriazeno)-2-dimethylamino imidazole] has an ILS at 16 mg/kg (R1 lymphoma [2]; Mus musculus, ip, Table B strain, 16 mg/kg i.p. daily day 3 to day 7, dose of maximum increase, read-out: Medium % increase in survival time) of 45%.

CCOC(=O)c1nc(Cc2ccccc2)[nH]c1N=NN(C)C [4-Carbethoxy-5-(3,3-di-methyl-triazeno)-2-benzyl imidazole] gave an ILS at 64 mg/kg (R1 lymphoma [1]; [8]) of 200%.

For CN(C)N=Nc1[nH]c(-c2cccs2)nc1C(N)=O [4-Carboxamido-5-(3,3-dimethyltriazeno)-2-(2-thienyl)imidazole], the ILS at 128 mg/kg (R1 lymphoma [1]; [8]) was 50%.

CCCc1nc(C(=O)OCC)c(N=NN(C)C)[nH]1 [4-Carbethoxy-5-(3,3-dimethyltriazeno)-2-n propyl imidazole] showed an ILS at 32 mg/kg (R1 lymphoma [2]; [9]) of 130%.

With COC(=O)c1nc(-c2ccccc2)[nH]c1N=NN(C)C the ILS at 16 mg/kg (R1 lymphoma [1]; Table A strain, 16 mg/kg i.p. daily day 3 to day 7, dose of maximum increase) was 400%.

Work on CCOC(=O)c1nc(S)[nH]c1N=NN(C)C [4-Carbethoxy-5-(3,3-dimethyltriazeno)-2-mercapto imidazole] yielded an ILS at 128 mg/kg (R1 lymphoma [2]; [10]) of 140%.

COC(=O)c1nc(S)[nH]c1N=NN(C)C [4-Carbmethoxy-5-(3,3-dimethyltriazeno)-2-mercapto imidazole] showed an ILS at 32 mg/kg (R1 lymphoma [2]; [9]) of 90%.

Work on CCOC(=O)c1nc(-c2ccccc2)[nH]c1N=NN(C)C [4-Carbethoxy-5-(3,3-dimethyl-triazeno)-2-phenyl imidazole] yielded an ILS at 32 mg/kg (R1 lymphoma [1]; [8]) of 300%, an ILS at 33 mg/kg (R1 lymphoma [2]; [10]) of 65% and an ED90 [3, 11] of 3.5 mg/kg. For the same compound, the “Therapeutic Index” value [3] was 88, the LD50 [4] was 310 mg/kg and the “Therapeutic Index” value (PC 6 tumour; i.p. dosing) was 27. For the same compound, the “Therapeutic Index” value (PC 6 tumour; oral dosing) was 11, the “inhibition of the splenomegally” value (Friend leukaemia virus) was “complete inhibition of the splenomegally” and the MIC (Staphylococus aureus) was 10 µg/mL. The MIC [5] was 1 µg/mL, the MIC (Candida albicans) was 10 µg/mL (≈ 34.8 µM) and the MIC (Candida neoformans) was 10 to 50 µg/mL (≈ 34.8 to 174 µM). It also gave an MIC [6] of 10 µg/mL (≈ 34.8 µM).

Work on CCOC(=O)c1nc(-c2cccc(C)c2)[nH]c1N=NN(C)C [4-Carboxyethyl-5-(3,3-dimethyltriazeno)-2-(3-methyl-phenyl) imidazole] yielded an ILS at 128 mg/kg (R1 lymphoma [1]; [8]) of 150%.

In the case of CCOC(=O)c1nc(COc2ccc(OC)cc2)[nH]c1N=NN(C)C [4-Carbethoxy-5-(3,3-dimethyltriazeno)-2-p-methoxy-phenoxymethylimidazole], the ILS at 64 mg/kg (R1 lymphoma [1]; [8]) is reported as > 150%.

For CCOC(=O)c1nc(C2CCCCC2)[nH]c1N=NN(C)C [4-Carbethoxy-5-(3,3-dimethyltriazeno)-2-cyclohexyl imidazole], the ILS at 21 mg/kg (R1 lymphoma [2]; Mus musculus, ip, Table B strain, 21 mg/kg i.p. daily day 3 to day 7, dose of maximum increase, read-out: Medium % increase in survival time) was 85%.

In the case of CN(C)N=Nc1[nH]cnc1C(N)=O [DIC, 4-Carboxamide-5-(3,3-dimethyltriazeno)imidazole, reference compound], the ILS at 32 mg/kg (R1 lymphoma [1]; [8]) is reported as 300%, the ILS at 33 mg/kg (R1 lymphoma [2]; [10]) is reported as 60% and the “Therapeutic Index” value (PC 6 tumour; i.p. dosing) is reported as 33. For the same compound, the “Therapeutic Index” value (PC 6 tumour; oral dosing) was 24 and the degradation in man [7] was “degraded substantially to AIC”.

Compound CCOC(=O)c1nc(-c2ccc(Cl)cc2)[nH]c1N=NN(C)Cc1ccccc1 [4-Carboxyethyl-5-(3-methyl-3-benzyltriazeno)-2-(4-chlorophenyl)imidazole] has an ILS at 100 mg/kg (R1 lymphoma [1]; Table A strain, 100 mg/kg i.p. daily day 3 to day 7, dose of maximum increase) of 40%.

With CN(Cc1cnc2nc(N)nc(N)c2n1)c1ccc(C(=O)N[C@@H](CCC(=O)O)C(=O)O)cc1 [Methotrexate, 4-amino-10-methyl folic acid, reference compound] the ILS at 2 mg/kg (R1 lymphoma [1]) was 100%, the ILS at 2 mg/kg (R1 lymphoma [2]; Mus musculus, ip, read-out: Medium % increase in survival time) was 60% and the ID90 [3, 11] was “Inactive”.

Work on CCOC(=O)Cc1nc(C(=O)OCC)c(N=NN(C)C)[nH]1 [4-Carbethoxy-5-(3,3-dimethyltriazeno)-2-carbethoxymethyl imidazole] yielded an ILS at 64 mg/kg (R1 lymphoma [1]; [8]) of 400%.

With CCOC(=O)c1nc(-c2ccsc2)[nH]c1N=NN(C)C [4-Carboxyethyl-5-(3,3-dimethyltriazeno)-2-(3-thienyl) imidazole] the ILS at 33 mg/kg (R1 lymphoma [1]; [8]) was 200%.

For CCOC(=O)c1nc(-c2ccc(F)cc2)[nH]c1N=NN(C)C [4-Carbethoxy-5-(3,3-dimethyltriazeno)-2-(p-fluorophenyl) imidazole], the ED90 [3, 11] was 20 mg/kg, the “Therapeutic Index” value [3] was 10 and the LD50 [4] was 200 mg/kg.

For CCOC(=O)c1nc(-c2ccc(OC)cc2)[nH]c1N=NN(C)C [4-Carboxyethyl-5-(3,3-dimethyltriazeno)-2-(4-methoxyphenyl) imidazole], the ILS at 33 mg/kg (R1 lymphoma [1]; [8]) was 50%.

For CCOC(=O)c1nc(C)n(C)c1N=NN(C)C [4-Carbethoxy-5-(3,3-dimethyltriazeno-1-2 dimethylimidazole], the “Medium % increase in survival time” value (R1 lymphoma [2]; Table B strain, 32 mg/kg i.p. daily day 3 to day 7, dose of maximum increase) was 65%.

In the case of CCOC(=O)c1nc(C)[nH]c1N=NN(C)C [4-Carbethoxy-5-(3,3-dimethyltriazeno)-2-methylimidazole], the ILS at 32 mg/kg (R1 lymphoma [2]; [9]) is reported as 90%, the “Therapeutic Index” value (PC 6 tumour; i.p. dosing) is reported as 47 and the “Therapeutic Index” value (PC 6 tumour; oral dosing) is reported as 40. It also gave an MIC (E. Coli) of 15 µg/mL, an MIC (Proteus mirabilis) of 15 µg/mL and an MIC (Pseudomonas aeroginosa) of 62 µg/mL. For the same compound, the MIC (Staphylococus aureus) was 7.5 µg/mL.

With CCOC(=O)c1nc(-c2ccc3ccccc3c2)[nH]c1N=NN(C)C [4-Carboxyethyl-5-(3,3-dimethyltriazeno)-2-(2-naphthyl) imidazole] the ILS at 128 mg/kg (R1 lymphoma [1]; [8]) was 170%.

For CN(C)N=Nc1[nH]c(-c2ccccc2)nc1C(N)=O [4-Carboxamido-5-(3,3-dimethyltriazeno)-2-phenylimidazole], the ILS at 50 mg/kg (R1 lymphoma [1]; Table A strain, 50 mg/kg i.p. daily day 3 to day 7, dose of maximum increase) was 80%, the ED90 [3, 11] was 16 mg/kg and the “Therapeutic Index” value [3] was 15. For the same compound, the LD50 [4] was 240 mg/kg.

CCOC(=O)c1nc(CC)[nH]c1N=NN(C)C [4-Carbethoxy-5-(3,3-dimethyltriazeno)-2-ethyl imidazole] showed an ILS at 32 mg/kg (R1 lymphoma [2]; [9]) of 70%.

For CCOC(=O)c1nc(-c2cccnc2)[nH]c1N=NN(C)C [4-Carbethoxy-5-(3,3-dimethyltriazeno)-2-(3-pyridyl)imidazole], the ILS at 32 mg/kg (R1 lymphoma [1]; [8]) was 170%.

Compound Cc1nc(C(N)=O)c(N=NN(C)C)[nH]1 [4-Carboxamido-5-(3,3-dimethyltriazeno)-2-methyl imidazole] has an ILS at 128 mg/kg (R1 lymphoma [2]; [10]) of 60%.
